Measured values reported in publication PMC10667233, “New cytotoxic dammarane type saponins from Ziziphus spina-christi” (Scientific Reports, 2023).
≈ marks a conversion by molar mass, not a printed value. Read-outs that look alike come from different tables or passages of the source.

Experiments:
A549 = test: MTS cell viability, A549 lung cancer cells; type: cell-based; details: Homo sapiens, read-out: IC50 (µg/mL) values
Experimental: (§1) A549, U87, MDA-MB-231, and CT-26 cells were purchased from American Type Culture Collection (ATCC) (Manassas, VA, USA). The cells, A549 and CT-26 were cultured in RPMI-1640 supplemented with 1% Pen/Strep (100 U mL^–1, Gibco, Carlsbad, CA) and 10% FBS (Atlanta Biologicals, Flowery Branch, GA). While MDA-MB-231 and U87 cells were cultured in DMEM medium supplemented with 1% Pen/Strip and 10% FBS. Cells were incubated at 37 °C and 5% CO2 in humidified incubator (Sanyo Scientific Autoflow, Hudson, MA).
(§2) A549, U87, MDA-MB-231, and CT-26 cancer cells were plated in 96-well plates at a density of 2X10^4 cells/well in 100 μL of medium before the addition of different concentrations of the plant extracts. Untreated control group was incubated with^-100 µL/well of fresh media and^-methanol. After 24 h., the medium was aspirated and replaced by-100 µL of fresh media, and 20 µL of MTS^-reagent in each well (CellTiter 96^-Aqueous One^-Solution cell^-proliferation assay, Promega^-Corporation, Madison,^-WI,^-USA). The plates were then incubated at 37 °C with 5% CO2 for 2 h. The absorbance was measured at 490 nm using a Spectramax plus 384 Microplate reader (Molecular Devices, Sunnyvale, CA, USA). Relative cell viability values were expressed as the percentage of the absorbance from the treated wells compared to the control wells (untreated), given that the control wells viability was set to 100%. The cells were examined under a cell imaging system (EVOS FL Digital Microscope) using a 20X objective as well before getting rid of the plates. The half-maximal inhibitory concentrations (IC50) of pure compounds for four […] cancer cell lines were calculated.
(§3) Figure 3 The anticancer activities of the three pure compounds (1–3) isolated from Ziziphus spina-christi using the MTS assay on glioblastoma, breast cancer, lung, and colorectal carcinoma cells. Cancer cells lines A549 (a) U87 (b), MDA-MB-231 (c) and CT-26 […] were tested. […] Cells were stained with MTS reagents and cell survival was quantitated using the spectramax plate reader. […]

CT-26 = test: MTS cell viability, CT-26 colorectal carcinoma cells; type: cell-based; details: read-out: IC50 (µg/mL) values
Experimental: as §1, §2, §3

U87 = test: MTS cell viability, U87 glioblastoma cells; type: cell-based; details: Homo sapiens, U-87 MG, 24 h, read-out: IC50 (µg/mL) values
Experimental: as §1, §2, §3

MDA-MB-231 = test: MTS cell viability, MDA-MB-231 breast cancer cells; type: cell-based; details: Homo sapiens, read-out: IC50 (µg/mL) values
Experimental: as §1, §2, §3

[1] = tested on: breast cancer cell line MDA-MB-231; set-up: method as in PMID 19960417; details: 50 μmol/l, MDA-MB-231 in vitro; cited from earlier work
sarcoma S180 = tested on: sarcoma S180; set-up: method as in PMID 19960417; details: 50 μmol/kg, mice implanted with sarcoma S180; cited from earlier work
EBV-EA = details: cited from earlier work
A549 cells = tested on: A549 cells; set-up: method as in PMID 26922140; details: concentration-dependent; cited from earlier work

CC(C)=CC1CC(C)(O)C2C3CCC4C5(C)CCC(OC6OCC(O)C(OC7OC(CO)C(OC(=O)C=Cc8ccc(O)cc8)C(O)C7O)C6OC6OC(C)C(O)C(O)C6O)C(C)(C)C5CCC4(C)C34COC2(C4)O1 (stereo not drawn) [Compound 1, Christinin E]
IC50 (A549; A549, MTS, 24 h): 9.53 ± 0.01 µg/mL (≈ 9 µM) | IC50 (CT-26; CT26, CT-26, MTS, 24 h): 0.7 ± 0.049 µg/mL (≈ 0.661 µM) | IC50 (U87; U87, MTS): 5.7 ± 1.63 µg/mL (≈ 5.38 µM) | IC50 (MDA-MB-231; MDA-MB-231, MTS, 24 h): 6.02 ± 1.5 µg/mL (≈ 5.68 µM)

CC(C)=CC1CC(C)(O)C2C3CCC4C5(C)CCC(OC6OCC(O)C(OC7OC(CO)C(OC(=O)C=Cc8ccc(OC(=O)C(=O)O)cc8)C(O)C7O)C6OC6OC(C)C(O)C(O)C6O)C(C)(C)C5CCC4(C)C34COC2(C4)O1 (stereo not drawn) [Compound 2, Christinin F]
IC50 (A549; A549, MTS, 24 h): 4.89 ± 0.93 µg/mL (≈ 4.32 µM) | IC50 (CT-26; CT26, CT-26, MTS, 24 h): 7.21 ± 0.35 µg/mL (≈ 6.37 µM) | IC50 (U87; U87, MTS): 4.16 ± 0.87 µg/mL (≈ 3.68 µM) | IC50 (MDA-MB-231; MDA-MB-231, MTS, 24 h): 5.81 ± 0.087 µg/mL (≈ 5.14 µM)

CC(C)=CC1CC(C)(O)C2C3CCC4C5(C)CCC(OC6OCC(O)C(OC7OC(CO)C(O)C(O)C7O)C6OC6OC(C)C(O)C(O)C6O)C(C)(C)C5CCC4(C)C34COC2(C4)O1 (stereo not drawn) [Compound 3, christinin A]
IC50 (A549; A549, 24 h): 5.67 ± 1.05 µg/mL (≈ 6.21 µM) | IC50 (CT-26; CT26, 24 h): 5.47 ± 1.3 µg/mL (≈ 5.99 µM) | IC50 (U87): 7.28 ± 0.56 µg/mL (≈ 7.97 µM) | IC50 (MDA-MB-231; MDA-MB-231, 24 h): 9.3 ± 0.19 µg/mL (≈ 10.2 µM)

CC(C)=CC1C[C@](C)(O)[C@@H]2[C@@H]3CC[C@@H]4[C@@]5(C)CC[C@H](O[C@@H]6OC[C@H](O)[C@H](O[C@@H]7O[C@H](CO)[C@@H](O)[C@H](O)[C@H]7O)[C@H]6O[C@@H]6O[C@@H](CO)[C@H](O)[C@H]6O)C(C)(C)[C@@H]5CC[C@@]4(C)[C@]34CO[C@@]2(C4)O1 (stereo partly drawn) [bacopaside VII]
adhesion, migration, and matrigel invasion (in words) [1]: markedly reduced | inhibition (sarcoma S180): 84.13%

C=C(C)[C@@H]1CC[C@]2(C)[C@H](CC[C@@H]3[C@@H]([C@@](C)(O)CCC=C(C)C)CC[C@]32C)[C@@]1(C)CCC(=O)O [dammarenolic acid]
IC50 (EBV-EA): 226 mol ratio/32 pmol TPA

bacopaside É
adhesion, migration, and matrigel invasion (in words) [1]: markedly reduced | inhibition (sarcoma S180): 90.52%

gypenoside Jh1
cytotoxicity (in words) (A549 cells): strong cytotoxicity
